Molecular target: T1, Q46 protein aggregates (Homo sapiens, UniProt P42858)
T1 construct: fused on or other part: GST at the N-terminus, cut off with thrombin before the test to start aggregation; The wells held aggregated Q46 without GST
Assay: Q46 radioligand binding assay (RBA)
Settings: 10 nM ligand [3H3]MK-3328
Procedure: Q46 Radioligand Binding Assay
For radioligand binding assays (RBA) GST-Q46 protein was generated based on a previous publication (Scherzinger et al. Cell, Vol. 90, 549-558, Aug. 8, 1997). For experiments 33 μM GST-Q46 was incubated with 150 μg/mL thrombin in assay buffer (150 mM NaCl, 50 mM Tris pH 8.0) and 2 mM CaCl2 for 16 hours at 37° C. Aggregated Q46 was pelleted by centrifugation for 5 minutes at 13,000 rpm in a bench top centrifuge and re-dissolved in the same volume of assay buffer. Test compounds were prepared by titration in DMSO at 11 concentrations from 33 μM to 1 nM. For the RBA, Q46 protein aggregates and test compounds were pre-incubated in assay buffer for 20 minutes at room temperature, in 140 μL/well in a 96-well plate (pp, round bottom). Then, ligand was added in 10 μL/well and incubated for 60 minutes at 37° C. Final assay concentrations were 1 μM to 30 pM test compound, 5 μM Q46 protein (equivalent monomer concentration) and 10 nM ligand [^3H3]MK-3328 (Harrision et al., ACS Med. Chem. Lett., 2 (2011), pp 498-502). Samples were transferred onto GF/B filter plates and washed 2× with 200 μL PBS using a Filtermate Harvester. After drying filter plates for 1 hour at 37° C., the back of the plates were sealed with foil and 30 μL/well scintillation fluid (Packard MicroScint 40) added, incubated for 15 minutes in the dark and counted in a TopCount reader. For analysis, replicate data from independent assay plates were normalized towards 0% and 100% inhibition using control wells of vehicle (0% inhibition) and 3 μM unlabelled MK-3328 (100% inhibition). IC50 values were determined with a sigmoidal inhibition model with four variables (top, bottom, slope, IC50) in a global fit using the normalized replicate data.

T1 sequence (P42858 with tags, fused parts or gaps with the stated changes, form open): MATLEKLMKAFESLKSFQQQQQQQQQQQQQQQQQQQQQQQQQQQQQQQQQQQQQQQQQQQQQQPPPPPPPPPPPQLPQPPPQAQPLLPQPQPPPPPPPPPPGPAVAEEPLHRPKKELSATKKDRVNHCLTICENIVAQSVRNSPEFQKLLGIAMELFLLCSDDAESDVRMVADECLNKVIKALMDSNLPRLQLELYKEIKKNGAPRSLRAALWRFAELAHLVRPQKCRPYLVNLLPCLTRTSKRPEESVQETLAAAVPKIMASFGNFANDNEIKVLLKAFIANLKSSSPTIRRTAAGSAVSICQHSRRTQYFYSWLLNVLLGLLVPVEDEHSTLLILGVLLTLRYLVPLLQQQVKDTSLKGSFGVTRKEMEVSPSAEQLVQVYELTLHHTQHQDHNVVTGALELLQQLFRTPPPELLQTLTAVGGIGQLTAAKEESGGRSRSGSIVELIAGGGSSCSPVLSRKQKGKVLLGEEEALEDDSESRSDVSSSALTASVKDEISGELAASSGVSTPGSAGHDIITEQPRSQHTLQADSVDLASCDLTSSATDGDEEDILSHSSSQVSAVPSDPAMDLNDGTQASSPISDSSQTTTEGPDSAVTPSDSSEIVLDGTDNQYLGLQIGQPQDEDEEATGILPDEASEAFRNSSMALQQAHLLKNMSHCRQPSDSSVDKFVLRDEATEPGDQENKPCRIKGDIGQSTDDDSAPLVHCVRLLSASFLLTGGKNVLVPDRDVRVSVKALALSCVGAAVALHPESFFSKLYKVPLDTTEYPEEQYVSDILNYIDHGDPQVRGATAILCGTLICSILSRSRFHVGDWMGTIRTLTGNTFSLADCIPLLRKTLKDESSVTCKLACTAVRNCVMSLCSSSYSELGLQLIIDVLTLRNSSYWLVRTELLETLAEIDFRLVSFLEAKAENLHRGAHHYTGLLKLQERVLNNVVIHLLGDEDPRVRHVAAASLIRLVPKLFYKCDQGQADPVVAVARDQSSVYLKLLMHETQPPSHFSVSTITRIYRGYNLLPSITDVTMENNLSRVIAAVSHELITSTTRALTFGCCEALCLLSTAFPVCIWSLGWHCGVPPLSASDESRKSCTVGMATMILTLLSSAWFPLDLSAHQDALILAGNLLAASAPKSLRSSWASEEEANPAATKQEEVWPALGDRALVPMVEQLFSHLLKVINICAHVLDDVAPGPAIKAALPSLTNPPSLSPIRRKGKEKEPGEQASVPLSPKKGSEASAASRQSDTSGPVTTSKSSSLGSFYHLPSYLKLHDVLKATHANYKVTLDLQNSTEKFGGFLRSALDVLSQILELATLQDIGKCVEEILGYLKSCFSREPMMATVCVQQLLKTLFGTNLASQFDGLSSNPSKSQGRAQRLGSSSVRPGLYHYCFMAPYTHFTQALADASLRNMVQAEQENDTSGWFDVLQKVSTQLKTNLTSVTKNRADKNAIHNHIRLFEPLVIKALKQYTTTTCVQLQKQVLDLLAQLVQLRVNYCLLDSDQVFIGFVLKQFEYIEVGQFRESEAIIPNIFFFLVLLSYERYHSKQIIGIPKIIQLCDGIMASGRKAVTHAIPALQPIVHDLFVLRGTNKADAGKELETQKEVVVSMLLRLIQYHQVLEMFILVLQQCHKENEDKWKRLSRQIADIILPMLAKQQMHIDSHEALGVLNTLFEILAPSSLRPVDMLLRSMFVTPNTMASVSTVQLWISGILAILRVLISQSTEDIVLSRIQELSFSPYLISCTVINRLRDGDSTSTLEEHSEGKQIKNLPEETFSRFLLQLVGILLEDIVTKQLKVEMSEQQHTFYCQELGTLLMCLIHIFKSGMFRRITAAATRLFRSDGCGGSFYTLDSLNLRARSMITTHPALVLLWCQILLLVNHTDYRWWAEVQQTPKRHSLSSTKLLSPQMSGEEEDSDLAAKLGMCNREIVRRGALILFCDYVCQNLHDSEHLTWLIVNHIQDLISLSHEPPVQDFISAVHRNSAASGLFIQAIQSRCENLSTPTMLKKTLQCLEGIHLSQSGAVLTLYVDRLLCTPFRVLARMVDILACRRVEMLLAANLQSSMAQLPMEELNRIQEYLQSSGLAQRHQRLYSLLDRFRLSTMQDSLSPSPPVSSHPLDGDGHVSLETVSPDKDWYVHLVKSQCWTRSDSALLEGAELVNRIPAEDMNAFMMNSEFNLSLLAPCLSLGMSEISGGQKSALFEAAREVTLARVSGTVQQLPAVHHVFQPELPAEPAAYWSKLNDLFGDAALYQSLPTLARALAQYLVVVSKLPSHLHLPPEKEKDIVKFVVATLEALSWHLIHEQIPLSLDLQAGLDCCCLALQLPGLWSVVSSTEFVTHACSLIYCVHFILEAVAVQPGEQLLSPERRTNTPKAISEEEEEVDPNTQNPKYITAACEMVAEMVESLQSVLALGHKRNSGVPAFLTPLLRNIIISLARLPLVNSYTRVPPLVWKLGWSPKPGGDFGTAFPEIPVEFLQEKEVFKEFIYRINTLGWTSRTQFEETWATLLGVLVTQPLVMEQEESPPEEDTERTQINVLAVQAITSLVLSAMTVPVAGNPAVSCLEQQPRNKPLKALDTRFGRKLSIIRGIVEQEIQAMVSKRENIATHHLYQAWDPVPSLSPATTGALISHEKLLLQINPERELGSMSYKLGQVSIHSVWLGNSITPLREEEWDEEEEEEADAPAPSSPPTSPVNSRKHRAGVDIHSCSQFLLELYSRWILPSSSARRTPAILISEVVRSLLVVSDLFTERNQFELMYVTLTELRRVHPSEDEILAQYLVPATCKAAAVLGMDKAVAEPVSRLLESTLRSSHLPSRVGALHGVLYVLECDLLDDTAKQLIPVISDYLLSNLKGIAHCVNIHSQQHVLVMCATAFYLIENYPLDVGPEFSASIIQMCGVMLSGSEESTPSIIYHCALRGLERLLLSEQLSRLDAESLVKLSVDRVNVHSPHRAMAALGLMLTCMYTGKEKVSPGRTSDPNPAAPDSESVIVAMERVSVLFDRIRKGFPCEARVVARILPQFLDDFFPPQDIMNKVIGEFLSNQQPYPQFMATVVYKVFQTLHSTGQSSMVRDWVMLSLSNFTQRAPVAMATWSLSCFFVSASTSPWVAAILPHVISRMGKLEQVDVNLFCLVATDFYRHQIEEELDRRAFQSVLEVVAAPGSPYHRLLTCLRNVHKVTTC

IC50	Structure (SMILES)
< 100 nM	COc1ccc(C(=O)Nc2ccc3oc(-c4cccc(C)c4)nc3c2)nc1 [5-methoxy-N-[2-(3-methylphenyl)-1,3-benzoxazol-5-yl]pyridine-2-carboxamide]
< 100 nM	COc1ccc(COc2ccc3oc(N4CCc5cccnc5C4)nc3c2)nc1 [7-{5-[(5-methoxypyridin-2-yl)methoxy]-1,3-benzoxazol-2-yl}-5,6,7,8-tetrahydro-1,7-naphthyridine]
100 to 500 nM	COc1ccc(COc2ccc3oc(C4CCN(C)CC4)nc3c2)nc1 [5-[(5-methoxypyridin-2-yl)methoxy]-2-(1-methylpiperidin-4-yl)-1,3-benzoxazole]
< 100 nM	O=C(Nc1ccc2oc(-c3cccnc3)nc2c1)c1cnc2ccccc2n1 [N-[2-(pyridin-3-yl)-1,3-benzoxazol-5-yl]quinoxaline-2-carboxamide]
100 to 500 nM	Oc1cnc(-c2ccc3oc(-c4cccnc4)nc3c2)cn1 [5-[2-(pyridin-3-yl)-1,3-benzoxazol-5-yl]pyrazin-2-ol]
100 to 500 nM	c1ccc(OCCOc2ccc3oc(-c4cccnc4)nc3c2)nc1 [5-[2-(pyridin-2-yloxy)ethoxy]-2-(pyridin-3-yl)-1,3-benzoxazole]
< 100 nM	COc1ccc(COc2cnc3oc(-c4ccc(=O)n(C)n4)nc3c2)nc1 [6-{6-[(5-methoxypyridin-2-yl)methoxy]-[1,3]oxazolo[5,4-b]pyridin-2-yl}-2-methyl-2,3-dihydropyridazin-3-one]
< 100 nM	COc1cncc(NC(=O)c2ccc3oc(-c4cccnc4)nc3c2)c1 [N-(5-methoxypyridin-3-yl)-2-(pyridin-3-yl)-1,3-benzoxazole-5-carboxamide]
< 100 nM	COc1cnc(C(=O)Nc2ccc3oc(-c4cccc(C)c4)nc3c2)cn1 [5-methoxy-N-[2-(3-methylphenyl)-1,3-benzoxazol-5-yl]pyrazine-2-carboxamide]
100 to 500 nM	CC(C)(C)OC(=O)N1CCN(c2ccc3oc(-c4cccnc4)nc3c2)CC1 [tert-butyl 4-[2-(pyridin-3-yl)-1,3-benzoxazol-5-yl]piperazine-1-carboxylate]
< 100 nM	CNc1ccc(-c2nc3cc(OCc4ccc(OC)cn4)ccc3o2)cn1 [5-{5-[(5-methoxypyridin-2-yl)methoxy]-1,3-benzoxazol-2-yl}-N-methylpyridin-2-amine]
< 100 nM	COc1ccc(C(=O)Nc2ccc3oc(-c4cccnc4)nc3c2)cc1 [4-methoxy-N-[2-(pyridin-3-yl)-1,3-benzoxazol-5-yl]benzamide]
< 100 nM	CN(C)CCn1cc(COc2ccc3oc(-c4ccncc4C#N)cc3c2)cn1 [4-[5-({1-[2-(dimethylamino)ethyl]-1H-pyrazol-4-yl}methoxy)-1-benzofuran-2-yl]pyridine-3-carbonitrile]
< 100 nM	O=C(Nc1ccc2oc(-c3cccnc3)nc2c1)c1ccc(COc2ccccc2)cc1 [4-(phenoxymethyl)-N-[2-(pyridin-3-yl)-1,3-benzoxazol-5-yl]benzamide]
< 100 nM	COc1ccc(COc2ccc3oc(-c4ccc(C#N)cc4)nc3c2)nc1 [4-{5-[(5-methoxypyridin-2-yl)methoxy]-1,3-benzoxazol-2-yl]benzonitrile]
< 100 nM	COc1ccc(C(=O)Nc2ccc3oc(-c4cccc(C)c4)nc3c2)cn1 [6-methoxy-N-[2-(3-methylphenyl)-1,3-benzoxazol-5-yl]pyridine-3-carboxamide]
100 to 500 nM	COc1ccc(COc2ccc3oc(-c4cn(C)cn4)nc3c2)nc1 [5-[(5-methoxypyridin-2-yl)methoxy]-2-(1-methyl-1H-imidazol-4-yl)-1,3-benzoxazole]
< 100 nM	Cc1cncc(Oc2ccc(C(=O)Nc3ccc4oc(-c5cccnc5)nc4c3)cc2)n1 [4-[(6-methylpyrazin-2-yl)oxy]-N-[2-(pyridin-3-yl)-1,3-benzoxazol-5-yl]benzamide]
< 100 nM	COc1ccc(C(=O)Nc2ccc3oc(-c4cccnc4)nc3c2)nc1 [5-methoxy-N-[2-(pyridin-3-yl)-1,3-benzoxazol-5-yl]pyridine-2-carboxamide]
< 100 nM	COc1ccnc(COc2cnc3oc(-c4cccnc4)nc3c2)c1 [4-methoxy-2-({[2-(pyridin-3-yl)-[1,3]oxazolo[5,4-b]pyridin-6-yl]oxy}methyl)pyridine]
< 100 nM	COc1cnc(COc2ccc3oc(-c4cnn(C)c4)nc3c2)cn1 [5-[(5-methoxypyrazin-2-yl)methoxy]-2-(1-methyl-1H-pyrazol-4-yl)-1,3-benzoxazole]
100 to 500 nM	O=c1cnc(COc2ccc3oc(-c4cccnc4)nc3c2)c[nH]1 [5-({[2-(pyridin-3-yl)-1,3-benzoxazol-5-yl]oxy}methyl)-1,2-dihydropyrazin-2-one]
< 100 nM	O=C(Nc1ccc2oc(-c3cccnc3)nc2c1)C1Cc2ccccc2O1 (stereo not drawn) [N-[2-(pyridin-3-yl)-1,3-benzoxazol-5-yl]-2,3-dihydro-1-benzofuran-2-carboxamide]
< 100 nM	N#Cc1cnccc1-c1cc2cc(OCc3cnn(CCO)c3)ccc2o1 [4-(5-{[1-(2-hydroxyethyl)-1H-pyrazol-4-yl]methoxy}-1-benzofuran-2-yl)pyridine-3-carbonitrile]

Continued, compound first:

Structure (SMILES)	IC50
C(#Cc1cnc2oc(-c3cccnc3)nc2c1)c1cccnc1 [3-{6-[2-(pyridin-3-yl)ethynyl]-[1,3]oxazolo[5,4-b]pyridin-2-yl}pyridine]	< 100 nM
O=C(COc1ccccc1)Nc1ccc2oc(-c3cccnc3)nc2c1 [2-phenoxy-N-[2-(pyridin-3-yl)-1,3-benzoxazol-5-yl]acetamide]	< 100 nM
c1cncc(COc2ccc3oc(-c4cccnc4)nc3c2)c1 [2-(pyridin-3-yl)-5-(pyridin-3-ylmethoxy)-1,3-benzoxazole]	< 100 nM
COCCn1cc(COc2ccc3oc(-c4ccncc4C#N)cc3c2)cn1 [4-(5-{[1-(2-methoxyethyl)-1H-pyrazol-4-yl]methoxy}-1-benzofuran-2-yl)pyridine-3-carbonitrile]	< 100 nM
COc1ccc(-c2nc3cc(NC(=O)c4cccc(OC)c4)ccc3o2)cc1 [3-methoxy-N-[2-(4-methoxyphenyl)-1,3-benzoxazol-5-yl]benzamide]	< 100 nM
COc1ccc(C(Nc2cnc3oc(-c4cccnc4)nc3c2)C(F)(F)F)cc1 (stereo not drawn) [2-(pyridin-3-yl)-N-[2,2,2-trifluoro-1-(4-methoxyphenyl)ethyl]-[1,3]oxazolo[5,4-b]pyridin-6-amine]	> 50 nM
Cn1cc(C(=O)Nc2ccc3oc(-c4cccnc4)nc3c2)cn1 [1-methyl-N-[2-(pyridin-3-yl)-1,3-benzoxazol-5-yl]-1H-pyrazole-4-carboxamide]	< 100 nM
COc1ccc(COc2ccc3oc(-c4ccc5occc5c4)nc3c2)nc1 [2-(1-benzofuran-5-yl)-5-[(5-methoxypyridin-2-yl)methoxy]-1,3-benzoxazole]	< 100 nM
Cn1cc(COc2ccc3oc(-c4cccnc4)nc3c2)ncc1=O [1-methyl-5-({[2-(pyridin-3-yl)-1,3-benzoxazol-5-yl]oxy}methyl)-1,2-dihydropyrazin-2-one]	100 to 500 nM
COc1ccc(COc2ccc3oc(-c4ccc(OC)cn4)nc3c2)nc1 [2-(5-methoxypyridin-2-yl)-5-[(5-methoxypyridin-2-yl)methoxy]-1,3-benzoxazole]	< 100 nM
Cn1nc(C(=O)Nc2ccc3oc(-c4ccc(=O)n(C)n4)nc3c2)ccc1=O [1-methyl-N-[2-(1-methyl-6-oxo-1,6-dihydropyridazin-3-yl)-1,3-benzoxazol-5-yl]-6-oxo-1,6-dihydropyridazine-3-carboxamide]	< 100 nM
COc1ccc(/C=C/c2nc3cc(OCc4ccc(OC)cn4)ccc3o2)cc1 [2-[(E)-2-(4-methoxyphenyl)ethenyl]-5-[(5-methoxypyridin-2-yl)methoxy]-1,3-benzoxazole]	< 100 nM
COc1ccc(COc2ccc3oc(N4CCc5nc[nH]c5C4)nc3c2)nc1 [2-{3H,4H,5H,6H,7H-imidazo[4,5-c]pyridin-5-yl}-5-[(5-methoxypyridin-2-yl)methoxy]-1,3-benzoxazole]	< 100 nM
N#Cc1cccc(C(=O)Nc2ccc3oc(-c4cccnc4)nc3c2)c1 [3-cyano-N-[2-(pyridin-3-yl)-1,3-benzoxazol-5-yl]benzamide]	< 100 nM
COc1ncc(C(=O)Nc2ccc3oc(-c4cccc(C)c4)nc3c2)cn1 [2-methoxy-N-[2-(3-methylphenyl)-1,3-benzoxazol-5-yl]pyrimidine-5-carboxamide]	< 100 nM
N#Cc1cnccc1-c1cc2cc(OCC3=CSC4=NCCN34)ccc2o1 [4-(5-{5H,6H-imidazo[2,1-b][1,3]thiazol-3-ylmethoxy}-1-benzofuran-2-yl)pyridine-3-carbonitrile]	< 100 nM
O=C(Nc1ccc2oc(-c3cccnc3)nc2c1)c1nnc(-c2ccccc2)o1	< 100 nM
COc1cnc(COc2cnc3oc(-c4cnn(C)c4)nc3c2)cn1 [2-methoxy-5-({[2-(1-methyl-1H-pyrazol-4-yl)-[1,3]oxazolo[5,4-b]pyridin-6-yl]oxy}methyl)pyrazine]	< 100 nM

From patent US12258355B2, “Probes for imaging huntingtin protein” (CHDI Foundation, Inc., priority 2014, dated 2025)
